Test results reported in patent publication US11472723B2, “Method for removing heavy metals from an aqueous solution” (NEWSOUTH INNOVATIONS PTY LIMITED, priority 2016, dated 2022).
Values after ≈ are worked out from the molar mass of the structure shown. Values joined by “and” are separate entries in the source; they are usually repeats but may differ in a detail not shown here. Equal values may be shown once. Read-outs that look alike come from different tables or passages of the source. Marks after values point to notes of the source that are not given here.

Columns and labels:
[1] = Critical micelle concentration (CMC) in water; format: physicochemical
Source text: In the bulk aqueous phase, surfactants form aggregates, such as micelles, at concentrations above the critical micelle concentration (CMC), where the hydrophobic tails form the core of the aggregate and the hydrophilic heads are in contact with the surrounding liquid. The CMC of a surfactant in an aqueous solution can be determined by a person skilled in the art using techniques known in the art. For example, the CMC of a surfactant can be determined by measuring changes in the conductance or surface tension of the solution at different concentrations of the surfactant.

Foaming test = format: physicochemical; details: about one tenth of CMC in water, shaken with air, Passed/Failed
Method: A foaming test was performed by dissolving the test compound in water at a concentration of approximately one tenth of the CMC of the test compound. The solution was then placed in a stoppered vessel with air and shaken and a visual observation made as to whether a stable foam had been formed.

[2] = literature value (footnotes a-d); cited from earlier work
[3] = Ion flotation of arsenic solution in bubble column, As by ICP-MS; details: for Arsenic removal after 90 minutes / arsenic removal: flotation; for Arsenic removal after 90 minutes: 5 ppm arsenic solution; for arsenic removal / Adsorption (%): time not stated
Method: (§1) An ICP-MS (Perkin Elmer, NexION 300D with Universal cell technology) was used to determine the arsenic, mercury and lead solution concentrations.
In a typical experiment, 0.01 M of the single chain octanoyl-cysteine surfactant was dissolved (with stirring and heating to not more than 65° C.) in a solution of arsenic (HAsO4^2−) 5 ppm containing NaOH 0.1 M (to keep the pH at about 8), which was then made up to 100 ml using Milli-Q water.
Two samples were taken after 30, 60 and 90 minutes and the arsenic concentration of each sample was determined by ICP-MS. The upper outlet foam was also collected in a waste container using an outlet tube. […]

Solubility in water = details: for Solubility in water up to minimum 0.01M: Yes/No
Source text: The synthesized surfactants were compared to each other with respect to their water solubility, conductivity, critical micelle concentration and foaming ability to determine basic suitability for the ion flotation process.

[4] = for As(III) / As(V) / Total As removal / Total As(V) reduced to As(III) / Total conc.: feed 5320.6 μg/L, 0.01M surfactant
Method: The As(V)/As(III) speciation measurements were carried out using a PE 200 Series HPLC, using a PRPX 100 Column, attached to a PE DRC-e (Dynamic Reaction Cell-e) ICPMS. 20 milli molar ammonium phosphate buffer was used as carrier solution at 1.5 ml/min with a matched Meinhart nebuliser and baffled spray chamber. The plasma conditions used were: 1500 W RF, at a gas flow rate of […].
Column solution samples after 30 minutes, and the solution remaining inside the column after 90 minutes, were sent for arsenic speciation determination analysis. It appears that after about half an hour the maximum adsorption of arsenic was obtained because no further foam was collected at the top of the column.

[5] = Ion flotation of lead ions with octanoyl-cysteine surfactant; details: 5 ppm Pb, 0.01M surfactant
Method: as §1
(§2) In similar ion flotation experiments, the removal rates for low levels of mercury and lead ions were also determined using the octanoyl-cysteine surfactant. The experiments were carried out using both air and pure N2 gas.

[6] = Ion flotation of mercury ions with octanoyl-cysteine surfactant; details: 5 ppm Hg, 0.01M surfactant
Method: as §1, §2

[7] = As in the waste collector (after 30 mins.)
[8] = As remaining in the flotation cell (after 90 mins)
[9] = 5 ppm As, 0.01M surfactant, inlet gas Air

## CCCCCCCCSC[C@H](N)C(=O)O [S-octyl cysteine, reference compound]
[1]
  CMC (in words): high CMC
Foaming test
  Foaming test: Failed
Foaming test; listed as single chain octyl based cysteine surfactant
  Foaming test: failed the foaming test
[2]
  CMC in water (M): 0.006*^b M
[3]; 100 ml of 5 ppm arsenic solution, surfactant 0.001 M (D-dodecanoyl cystine 0.01 × 10^−3 M)
  Adsorption after 30 min (%): 0%
[3]
  Arsenic removal after 90 minutes: 0%
  arsenic removal: no arsenic removal was observed
Solubility in water
  solubility in water (in words): good solubility
  Solubility in water up to minimum 0.01M: Yes

## CCCCCCCCNC(=O)N[C@@H](CSSC[C@H](NC(=O)NCCCCCCCC)C(=O)O)C(=O)O [D-octyl isocyanate cystine]
[1]
  CMC (in words): acceptably high CMC values
Foaming test
  Foaming test: Failed
Foaming test; listed as double chain-octyl isocyanate cystine
  Foaming test: produced no foaming in solution
[2]
  CMC in water (M): 0.008*^c M

## CCCCCCCCCCCC(=O)N[C@@H](CS)C(=O)O
[1]
  CMC (in words): low CMC values
Foaming test
  Foaming test: Passed
[2]
  CMC in water (M): 0.02 × 10^−3*^d M
Solubility in water
  solubility in water (in words): low solubility in water
  Solubility in water up to minimum 0.01M: No
Solubility in water; water
  solubility: 300 µM (≈ 91 µg/mL)

## CCCCCCCC(=O)N[C@@H](CS)C(=O)O [octanoyl-cysteine]
[4]; [7]
  As(III): 5259.4 µg/L
  As(V): 27.9 µg/L
  Total As removal: 99.38%
  Total As(V) reduced to As(III): 99.47%
  Total conc.: 5287.4 µg/L
[4]; As in the waste collector (after 30 mins.), listed as single chain octanoyl-cysteine
  Total As(V) reduced to As(III): about 99.47%
[4]; [8]
  As(III): 6.2 µg/L
  As(V): 27.1 µg/L
  Total As removal: 99.38%
  Total As(V) reduced to As(III): 99.49%
  Total conc.: 33.2 µg/L
[4]; As remaining in the flotation cell (after 90 mins), listed as single chain octanoyl-cysteine
  Total As removal: 99.38%
[4]; between the first 30 mins and 90 minutes, samples from inside the column
  As (V) remaining in the column reduced to As (III): 0.02%
Foaming test
  Foaming test: Passed
[2]
  CMC in water (M): 0.12*^a M
[3]; [9]
  Adsorption after 30 min (%): 72.6%
  Adsorption after 60 min (%): 99.88%
[3]; 100 ml of 5 ppm arsenic solution, purified product, Air
  Adsorption (%): 99.9 (Air) %
[3]; 100 ml of 5 ppm arsenic solution, purified product, N2 gas, listed as single chain octanoyl cysteine
  Adsorption (%): 98.6 (N2) % and 99.4 (N2) %
[3]; 100 ml of 5 ppm arsenic solution, raw product, N2 gas, listed as single chain octanoyl cysteine
  Adsorption (%): 93.8 (N2) % and 88.2 (N2) %
[3]
  Arsenic removal after 90 minutes: 99.4%
  arsenic removal: 99.00%
[3]; tests 1 and 2, raw unpurified product, 5 ppm feeding solution, after 90 minutes
  average removal of arsenic: 91.00%
[3]; tests 3 and 4, purified (2 times recrystallized) product, after 30 minutes
  average removal of arsenic: 99.00%
[5]; inlet gas Air
  Adsorption after 30 min (%): 92%
  Adsorption after 60 min (%): 99.1%
[5]; inlet gas N2
  Adsorption after 30 min (%): 94.9%
  Adsorption after 60 min (%): 99.4%
Solubility in water
  Solubility in water up to minimum 0.01M: Yes
[6]; inlet gas Air
  Adsorption after 30 min (%): 99.6%
  Adsorption after 60 min (%): 99.6%
[6]; inlet gas N2
  Adsorption after 30 min (%): 99.59%
  Adsorption after 60 min (%): 99.96%
